According to the NIST ThermoML archive (doi:10.1016/j.tca.2013.07.005):

Assays:
[1] = Molar enthalpy of transition or fusion; settings: Crystal; DSC
[2] = Crystal; for vapor or sublimation pressure: Transpiration method; for Normal melting temperature: DTA

O=C(NC1=NCCC2(CCCCC2)S1)c1ccccc1 [N-(1-thia-3-azaspiro[5.5]undec-2-en-2-yl)benzamide]
Settings	Molar enthalpy of transition or fusion [kcal/mol]	Normal melting temperature [°C]
[1]	6.67	–
[2]	–	130.2

[2]
Settings	vapor or sublimation pressure [kPa]
353.15 K	2.2e-09
354.15 K	2.3e-09
357.15 K	3.1e-09
360.15 K	3.8e-09
363.15 K	4.8e-09
366.15 K	5.8e-09
368.15 K	6.8e-09
371.15 K	8.9e-09
373.15 K	1.06e-08
375.15 K	1.28e-08
377.15 K	1.4e-08
378.15 K	1.51e-08
380.15 K	1.85e-08
381.15 K	2e-08
383.15 K	2.26e-08
386.15 K	2.87e-08

CC(=O)c1ccc(NC2=NCCC3(CCCCC3)S2)cc1
Settings	Molar enthalpy of transition or fusion [kcal/mol]	Normal melting temperature [°C]
[1]	7.77	–
[2]	–	163.5

[2]
Settings	vapor or sublimation pressure [kPa]
373.15 K	4.1e-09
375.15 K	5.3e-09
377.15 K	6.8e-09
379.15 K	8.8e-09
381.15 K	1.13e-08
383.15 K	1.46e-08
385.15 K	1.87e-08
386.15 K	2.15e-08
387.15 K	2.52e-08
388.15 K	2.87e-08
390.15 K	3.44e-08
391.15 K	3.72e-08
392.15 K	4.46e-08
393.15 K	5.03e-08
394.15 K	5.5e-08
396.15 K	7.28e-08
397.15 K	7.97e-08

COc1ccc(NC2=NCCC3(CCCCC3)S2)cc1 [N-(4-methoxyphenyl)-1-thia-3-azaspiro[5.5]undec-2-en-2-amine]
Settings	Molar enthalpy of transition or fusion [kcal/mol]	Normal melting temperature [°C]
[1]	6.52	–
[2]	–	115.4

[2]
Settings	vapor or sublimation pressure [kPa]
353.15 K	3.4e-09
355.15 K	4.7e-09
358.15 K	6.5e-09
360.15 K	9.5e-09
362.15 K	1.15e-08
365.15 K	1.64e-08
367.15 K	2.17e-08
369.15 K	2.73e-08
371.15 K	3.63e-08
373.15 K	4.28e-08
375.15 K	5.23e-08
377.15 K	6.63e-08
381.15 K	9.73e-08
